Residues, ends and D or L forms follow the SMILES beside them. *: point of attachment. For = O=C*
Compared with `Brc1ccc2c(c1)cc1n2CCC1`, `O=C(O)c1ccc(NN=C2CCCC2)cc1` is higher in melting point: 78.7 to 79.4 °C for the first, 250 to 253 °C for the second.

Compared with `CCCCOc1ccc(S(=O)(=O)C2(C(=O)OCC)CCN(Cc3ccc(F)cc3)CC2)cc1`, `NC(=O)OCCn1nccc1-c1ccc(Oc2ccc(F)cc2)cc1` is higher in melting point: 114 °C for the first, 120 to 125 °C for the second.

Compared with `CC1Cc2c(n(Cc3ccc(Cl)cc3)c3ccc(F)cc23)C(CC(=O)O)C1` (stereo unspecified), `COc1ccc2c(c1)c(Cc1cc(=O)n(-c3cc(C)cc(C)c3)[nH]1)c(C)n2C(=O)c1ccc(Cl)cc1` is lower in melting point: 205 to 206 °C for the first, 77.5 to 79 °C for the second.

First: COc1c(Nc2ncc3ccc(-c4ccccc4N(C)S(C)(=O)=O)n3n2)ccc(N2CCN(C[C@H](C)O)CC2)c1F
Second: CCn1cc(C(=O)O)c(=O)c2cnc(N3CCN(c4ccccc4)CC3)nc21
The melting point of the first is lower: 86 to 88 °C for the first, 247 to 248 °C for the second.

First: O=S(=O)(c1ccccc1)N1CCC(=C(c2ccc(F)cc2)c2ccc(F)cc2)CC1
Second: O=C(c1ccc(-c2ccncn2)cc1)N1CCN(S(=O)(=O)c2cc3cc(Cl)ccc3[nH]2)CC1
The melting point of the first is lower: 90 to 92.5 °C for the first, 229 to 230 °C for the second.

Compared with `CC(C)c1oc(-c2ccccc2)c(-c2ccc(F)c(Oc3ccccc3)c2)c1C=O`, `Cc1c(COc2cccc3cc(NS(=O)(=O)C(F)(F)F)ccc23)cccc1-c1ccccc1` is lower in melting point: 137 °C for the first, 124 to 125 °C for the second.

First: CCOc1nc2c(cnn2CC)nc1C(=O)Nc1nccs1
Second: CCNC(=O)n1nc(Oc2ncc(C(F)(F)F)cc2Cl)cc1CC
The melting point of the first is higher: 151 to 152 °C for the first, 85 to 86 °C for the second.

First: OCC1(Cc2ccc(Cl)c(Cl)c2)CCNCC1
Second: COc1ncc(C(=O)Cc2c(Cl)cncc2Cl)cc1OC1CCCC1
The melting point of the first is higher: 148 to 149 °C for the first, 118 to 119 °C for the second.

Compared with `CCOc1cc2c(cc1OCC)C(c1cccc(N)c1)=NN=C(C)C2`, `CCOc1cc2c3c(c4cc(OCC)c(OCC)cc4c2cc1OCC)C(=O)C=CC3=O` is higher in melting point: 133 to 134 °C for the first, 188 to 190 °C for the second.

First: CNC(=O)c1ccc(O[C@H]2CC[C@@H](NC(=O)Nc3ccc(OC(F)(F)F)cc3)CC2)cc1
Second: CCc1nccc(N(C(=O)Cc2ccc(Oc3ccc(C(F)(F)F)cn3)cc2)C(=O)OC)c1Cl
The melting point of the first is higher: 207 to 208 °C for the first, 62 to 64 °C for the second.

Compared with `CC(=O)OC1CSC(Oc2cccc(-c3ccccn3)c2)C(OC(C)=O)C1OC(C)=O` (stereo unspecified), `NC(Cc1c2ccccc2cc2ccccc12)(C(=O)O)C1CC(C(=O)O)C1` (stereo unspecified) is higher in melting point: 68 to 97 °C for the first, 213 to 216 °C for the second.

Compared with `CCCCCn1c(C)cc(=O)c(C(=O)Nc2ccccc2)c1-c1ccccc1`, `Cn1c(S)nc(-c2ccccc2)c1-c1ccccc1` is higher in melting point: 164 to 166 °C for the first, 179 to 182 °C for the second.

First: COc1ccc(OC2=CCNCC2)cc1
Second: COc1ccc(N2CCN(C(=O)c3cn4cc(Cl)ccc4n3)CC2)cc1
The melting point of the first is lower: 45 to 46 °C for the first, 180 to 181 °C for the second.

First: CN1Cc2c(C(=O)OC(C)(C)C)ncn2-c2ccccc2C1=O
Second: CC(=O)n1cc(Cl)c(-c2ccccc2Cl)c1
The melting point of the first is higher: 216 to 217 °C for the first, 82 to 84 °C for the second.

First: S=c1n(CCc2ccccc2)ccn1C1CCc2ccccc2C1 (stereo unspecified)
Second: O=C(OCc1ccccc1)n1ccc2c(O)cccc21
The melting point of the first is higher: 140 to 142 °C for the first, 118 to 120 °C for the second.

`CC(=O)Nc1ccc(-c2cc(C(=O)c3ccc(Cl)cc3Cl)sc2N2CCOCC2)cc1` and `Cc1ccc(-c2ccccc2C(=O)Nc2ccc(C(=O)N3C[C@@H]4CCCN4C(=S)c4ccccc43)cc2)cc1` cannot be ordered by melting point: 145 °C for the first, 140 to 145 °C for the second.

First: CC(C)(C)c1cc(CCc2ccccc2NC(=O)NCCc2ccc(Cl)cc2)cc(C(C)(C)C)c1O
Second: CC(C)(C)c1cc(-c2n[nH]c(=S)s2)cc(C(C)(C)C)c1O
The melting point of the first is lower: 173 to 174 °C for the first, 190 to 191 °C for the second.

First: CC(=O)N[C@@H](Cc1ccc(Oc2sc(C(N)=O)c3c2-c2c(cnn2C)CC3)cc1)C(=O)N1CCOCC1
Second: COc1ccc(N2CCN(c3c(C)c(C)c4c(c3C)C[C@@H](C)O4)CC2)cc1
The melting point of the first is higher: 139 to 140 °C for the first, 127 to 128 °C for the second.

First: CCN1CCN(CCCOc2cc3ncc(C#N)c(Nc4cc(OC)c(Cl)cc4Cl)c3cc2OC)CC1
Second: COc1cc2ccc3c4cc(OC)c(OC)cc4nc(C)c3c2cc1OC
The melting point of the first is lower: 102 to 104 °C for the first, 255 to 257 °C for the second.

Compared with `CC1(C)CCC(C)(C)c2cc(C(Br)C(Br)c3ccc(C#N)cc3)ccc21` (stereo unspecified), `COc1cc(C#N)ccc1C(Br)Br` is lower in melting point: 174 to 175 °C for the first, 78 to 79 °C for the second.

First: CC(O)c1nsc2nc3ccccc3n12 (stereo unspecified)
Second: C#CCCCc1c2c(nn1CCC)c(N)nc1ccccc12
The melting point of the first is higher: 174 to 175 °C for the first, 144 to 145 °C for the second.

First: CCc1ccc(COc2ccc(CC(NC(=O)c3cn4ccc(-c5ccc(Cl)cc5)cc4n3)C(=O)O)cc2)cc1 (stereo unspecified)
Second: Clc1ccc(OCc2ccc3ccccc3n2)cc1
The melting point of the first is higher: 245 °C for the first, 92 to 94 °C for the second.

First: NOCc1nnc2n1-c1ccc(Cl)cc1C(c1ccccc1)=NC2
Second: CN1C(=O)CN=C(c2ccccc2F)c2cc(NC(=O)NCc3ccccc3)ccc21
The melting point of the first is higher: 183 to 186 °C for the first, 174 to 178 °C for the second.

Compared with `Cc1ccc(NC(=O)c2ccc(C(=O)Nc3ccccc3NC(=O)OC(C)(C)C)s2)cc1Nc1nccc(-c2cccnc2)n1`, `Cc1nc(-n2cc(-c3ccccc3)nn2)sc1C(=O)NCc1ccccc1` is lower in melting point: 206 to 208 °C for the first, 175 to 178 °C for the second.

First: CC(C)(C)C(NC(=O)c1cccc(Br)c1)Nc1c(Nc2cccnc2Cl)c(=O)c1=O (stereo unspecified)
Second: CCNC(=O)c1c(Cl)cccc1N(C)C(C)(C)C
The melting point of the first is higher: 257 to 259 °C for the first, 106 to 108 °C for the second.

Compared with `Nc1nc(NC2CCCCC2)nc(NC2CCCCC2)n1`, `OC[C@@H]1C[C@@H](C2CCCCC2)CN1` is lower in melting point: 153 °C for the first, 98 to 99 °C for the second.

First: COC(=O)CCc1ccc(OCCSCCO)cc1
Second: CC(=O)c1ccc(OCCCCCCCCCCOc2ccccc2)o1
The melting point of the first is lower: 47 to 48 °C for the first, 74 to 77 °C for the second.

Compared with `COc1nccnc1NS(=O)(=O)c1ccc(Cl)s1`, `O=S(=O)(Nc1cccc2cc(-c3nc4ccccc4s3)[nH]c12)c1cccs1` is higher in melting point: 119 to 120 °C for the first, 201 to 202 °C for the second.

Compared with `N#CCCCCCCCCn1nnc(-c2ccccc2)c1-c1ccccc1`, `O=S(=O)(Cc1ccccc1)Nc1ncc(-c2ccccc2)nc1Cc1ccccc1` is higher in melting point: 77 to 78 °C for the first, 207 to 208 °C for the second.

First: COC(=O)CC1Oc2ccccc2NC1=O (stereo unspecified)
Second: COC(=O)C1=C(O)CCc2c(OC)cccc21
The melting point of the first is higher: 140 °C for the first, 55 to 58 °C for the second.

First: CNc1ccc([N+](=O)[O-])cc1[N+](=O)[O-]
Second: O=[N+]([O-])c1ccc(-c2nc[nH]c2-c2ccc([N+](=O)[O-])cc2)cc1
The melting point of the first is lower: 177 to 178 °C for the first, 294 °C for the second.

Compared with `O=C(O)c1cc(NC(=O)C(CS)Cc2cccnc2)cs1` (stereo unspecified), `O=C(C=Cc1cccc(S(=O)(=O)NCc2cccnc2)c1)NO` is higher in melting point: 115 to 118 °C for the first, 191 °C for the second.

First: CS(=O)(=O)c1cccc(-n2ccc(=O)c(-c3ccnn3-c3ccccc3)n2)c1
Second: O=S1(=O)c2ccccc2N(c2ccccn2)c2ccccc21
The melting point of the first is higher: 199 to 200 °C for the first, 184 to 188 °C for the second.

First: CCOC(=O)C1CN(C)c2nc3cc(F)c(F)cc3cc2C1=O (stereo unspecified)
Second: COc1c(N2C[C@H]3CCOC[C@@]3(N)C2)c(F)cc2c(=O)c(C(=O)O)cn([C@@H]3C[C@@H]3F)c12
The melting point of the first is higher: 188 °C for the first, 132 to 134 °C for the second.

First: CC12CC3OC3CC1CCC1C2CCC2(C)C(O)C(N3CCCCC3)CC12 (stereo unspecified)
Second: Cc1c(C)c2c(c(C)c1N)CC(C)(CN1CCC(CCO)CC1)O2 (stereo unspecified)
The melting point of the first is higher: 153 to 165 °C for the first, 94 to 95 °C for the second.

`CCOc1cc(C2CC=CN(C(=O)c3ccc(NC(=O)OCCCN(C)C)cc3)N2)ccc1OC` (stereo unspecified) and `COC(=O)c1ccc(Cn2nc(OC)c3ccc(N)cc32)c(OC)c1` cannot be ordered by melting point: 193 °C for the first, 188 to 193 °C for the second.

First: CC(C)(COS(N)(=O)=O)Oc1ccc(Cl)cc1
Second: O=c1oc2ccccc2cc1S(=O)(=O)Cc1ccc(Cl)cc1Cl
The melting point of the first is lower: 76 to 79 °C for the first, 228 to 229 °C for the second.

First: O=CNc1ccc(-c2cc[nH]n2)cc1
Second: O=CN1CCN(c2nc3ccc(Cl)ccc-3n2)CC1
The melting point of the first is lower: 139 to 141 °C for the first, 228 to 229 °C for the second.

First: COc1ccc(-c2nc(OCC(F)(F)F)nn2-c2ccc(OC)nc2)cc1
Second: O=C1c2ccccc2C(O)C1Cc1ncc(C(F)(F)F)cc1Cl (stereo unspecified)
The melting point of the first is lower: 63 to 64 °C for the first, 174 to 178 °C for the second.

Compared with `CCCN(C(=O)Cl)C(=O)CCl`, `CCCc1ccc(C(=O)C(=O)OCC)[nH]1` is higher in melting point: 40 to 44 °C for the first, 48 to 49 °C for the second.

Compared with `CC(c1oc2ccccc2c(=O)c1-c1ccccc1F)n1cnc2c(N)ncnc21` (stereo unspecified), `Cn1cncc1C(O)(c1ccc(C=NO)cc1)c1ccc2[nH]c(=O)cc(-c3cccc(Cl)c3)c2c1` (stereo unspecified) is lower in melting point: 247 to 250 °C for the first, 230 °C for the second.

First: COCCOC(=O)Nc1cc(N2CC=CCC2)nc2nc(=O)on12
Second: COC(=O)c1c[nH]c(CCC2CNc3nc(NC(=O)C(C)(C)C)nc(O)c3C2)c1 (stereo unspecified)
The melting point of the first is lower: 195 to 196 °C for the first, greater than 260 °C for the second.

First: COP(=O)(CNC(=O)[C@H](C)NC(=O)[C@H](C)NC(=O)OCc1ccccc1)OC
Second: O=CNC(CC(=O)O)C(=O)NC(Cc1ccccc1)C(=O)O (stereo not drawn) (For-Asp-Phe-OH; configuration not given here)
The melting point of the first is lower: 106 to 108 °C for the first, 180 to 182 °C for the second.

First: Cc1c(C(=O)Nc2cccc(C#N)c2N2CCC(O)CC2)cnn1C
Second: CN1CCCC(c2cccc3[nH]ccc23)C1 (stereo unspecified)
The melting point of the first is higher: 261 to 262 °C for the first, 151 °C for the second.

First: CNC(=O)C1(Nc2nc(Nc3cc4c(cc3OC)CCN(CC(=O)N(C)C)CC4)ncc2Cl)CC1
Second: CN1CCN(Cc2c(-c3cc(C(C)(C)C)c(O)c(C(C)(C)C)c3)nc3n2CCS3)CC1
The melting point of the first is lower: 118 to 125 °C for the first, 211 to 212 °C for the second.

Compared with `CCCCCCCCOc1ccc(-c2ncc(-c3ccc(CCCCCCCC)cc3)cn2)c(F)c1`, `CCCCCCc1ccc(C(=O)Cc2ccc(Br)cc2)cc1` is higher in melting point: 75 °C for the first, 108 °C for the second.

First: CS(=O)(=O)c1ccc2nc(N)[nH]c2c1
Second: COC(=O)c1nc(Cl)c(Cl)c(N)c1OC
The melting point of the first is higher: 233 to 238 °C for the first, 119 to 121 °C for the second.

Compared with `CC(C)OC(=O)NS(=O)(=O)Cl`, `CC(CCCNC(=O)CCCCCBr)C(F)(F)F` (stereo unspecified) is higher in melting point: 66 °C for the first, 96 to 98 °C for the second.

First: O=C(O)CCCC(=O)c1ccc(O)c(O)c1
Second: C#Cc1ccc(=O)oc1
The melting point of the first is higher: 210 to 215 °C for the first, 99 to 100 °C for the second.

Compared with `COc1c(C(C)(C)C)cc(C=C2CCON(C)C2=O)cc1C(C)(C)C`, `CC1(O)C(O)C(CO)OC1n1ccc2c(N)ncnc21` (stereo unspecified) is higher in melting point: 119 to 121 °C for the first, 222 °C for the second.

`O=C(OC(c1ccccc1)c1ccccc1)C(OC(=S)n1ccnc1)c1ccccc1` (stereo unspecified) showed a melting point of 109 to 110 °C.

Source: a melting point compilation (Tetko et al.; mined from patent text by program, amines drawn as free bases though some values may be those of a salt)
